Measurements taken from patent publication US20230346777A1, “USE OF SGC ACTIVATORS FOR THE TREATMENT OF OPHTHALMOLOGIC DISEASES” (Bayer Aktiengesellschaft, priority 2020, published 2023).
Entries after “also recorded” stand apart in the source; their conditions may differ. Structures can show the parent of a compound that is named as a salt.

Tests used:
[1] = biological target: T1, recombinant guanylate cyclase reporter cell line (Rattus norvegicus, UniProt P20595); test: Effect on a recombinant guanylate cyclase reporter cell line; assay type: cell-based
T1 construct: expressed in transfected cells; CHO by own knowledge of the cited Wunder et al. 2005
T1 sequence (P20595 1-619): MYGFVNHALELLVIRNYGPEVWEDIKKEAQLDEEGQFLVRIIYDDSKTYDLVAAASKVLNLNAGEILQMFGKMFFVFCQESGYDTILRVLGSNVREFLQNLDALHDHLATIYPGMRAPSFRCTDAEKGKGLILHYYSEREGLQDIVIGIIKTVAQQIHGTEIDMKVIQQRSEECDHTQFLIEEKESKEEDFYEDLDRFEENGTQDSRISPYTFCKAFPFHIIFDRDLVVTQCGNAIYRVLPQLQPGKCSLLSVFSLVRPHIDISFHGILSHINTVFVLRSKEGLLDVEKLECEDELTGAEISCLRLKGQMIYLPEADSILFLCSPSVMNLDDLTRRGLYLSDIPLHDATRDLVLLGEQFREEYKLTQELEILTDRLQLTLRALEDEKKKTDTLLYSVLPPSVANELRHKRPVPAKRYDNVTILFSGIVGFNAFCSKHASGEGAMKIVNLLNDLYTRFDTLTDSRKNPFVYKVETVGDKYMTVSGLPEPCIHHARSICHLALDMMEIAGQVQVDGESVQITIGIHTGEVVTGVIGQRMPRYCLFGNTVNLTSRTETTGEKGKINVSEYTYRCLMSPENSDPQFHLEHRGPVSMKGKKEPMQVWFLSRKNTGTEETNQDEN
T1 sequence (P19686 1-690 partner): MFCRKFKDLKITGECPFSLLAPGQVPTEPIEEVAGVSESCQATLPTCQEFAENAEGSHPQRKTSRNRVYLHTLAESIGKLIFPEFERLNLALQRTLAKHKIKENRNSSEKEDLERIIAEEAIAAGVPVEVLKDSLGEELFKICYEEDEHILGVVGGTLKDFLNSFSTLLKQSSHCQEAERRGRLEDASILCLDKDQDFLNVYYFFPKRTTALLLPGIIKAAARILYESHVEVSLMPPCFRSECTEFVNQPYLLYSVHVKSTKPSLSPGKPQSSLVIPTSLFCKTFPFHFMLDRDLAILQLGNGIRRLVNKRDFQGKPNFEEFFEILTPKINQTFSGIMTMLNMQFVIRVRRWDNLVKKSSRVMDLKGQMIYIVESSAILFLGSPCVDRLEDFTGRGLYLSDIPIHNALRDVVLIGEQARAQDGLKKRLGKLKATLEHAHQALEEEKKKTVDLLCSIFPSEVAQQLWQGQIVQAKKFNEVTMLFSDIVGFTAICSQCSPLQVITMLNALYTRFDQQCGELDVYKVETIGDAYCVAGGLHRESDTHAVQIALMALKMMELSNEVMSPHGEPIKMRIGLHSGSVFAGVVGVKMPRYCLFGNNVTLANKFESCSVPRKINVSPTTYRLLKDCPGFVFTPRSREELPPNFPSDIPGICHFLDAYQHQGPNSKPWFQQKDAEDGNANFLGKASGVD
Experimental: B-1. Effect on a Recombinant Guanylate Cyclase Reporter Cell Line
The cellular activity of the compounds according to the invention was determined using a recombinant guanylate cyclase reporter cell line, as described in F. Wunder et al., Anal. Biochem. 339, 104-112 (2005).

[2] = test system: retinal ischemia reperfusion (I/R) in rat; test: Sub-chronic changes in rat retinal structure after retinal ischemia reperfusion (I/R), therapeutic and prophylactic settings; assay type: in vivo, male Wistar Unilever rats; details: for IPL (inner plexiform layer) thickness: H&E sections
Excerpt: B-8 Evaluation of Sub-Chronic Changes in Rat Retinal Structure after Retinal Ischemia Reperfusion (I/R) Therapeutic and Prophylactic Settings
Six male Wistar Unilever rats were used per experimental group. On induction day, rats were anesthetized with an intraperitoneal injection of Rompun® and Ketavet® before the pupils of the right eyes were dilated with Alcain eye drops and in addition treated with Vigamox® eye drops. The left eye is covered with Bepanthen® eye cream. Under deep anesthesia, the retina and the optic nerve were examined by optical coherence tomography (OCT) as a baseline measurement. The induction was done as the anterior chamber was punctured with a 30 G needle. Through a tube, 0.9% NaCl solution was pumped into the anterior chamber with a pressure 120 mm Hg. The pressure is regulated with a blood pressure cuff. The intraocular pressure (IOP) was elevated for 45 min. The procedure was successful as the eyeballs discolored because of vascular obstruction. After 45 min, the needle was removed, eye cream was put on the right eye and the animal could wake up. Compound (e.g. example 3, formula I-E-R) or its vehicle were orally applied, once daily (QD). The application volume was 5 mL/kg. In prophylactic setting, animals started the treatment 2 days before induction and received an intravenous (IV) bolus of compound (e.g. example 3, formula I-E-R) (i.v. 3 mg/kg in rat plasma) 15 minutes before induction. Treatment continued then after for 21 days. In the therapeutic setting, animals received an intravenous (IV) bolus of compound (e.g. example 3, formula I-E-R) (i.v. 3 mg/kg in rat plasma) 15 minutes after induction. Treatment continued then after for 21 days; once daily (3 mg/kg, PO QD). At day 7 and day 21, the retina and the optic nerve were examined by optical coherence tomography (OCT). The retinal function was evaluated by the ERG (Electroretinography) at day 7 and day 21 post induction according to the method disclosed in McCulloch et al., 2015. Functional read-out of retinal electrical signal in response to light stimulation “b-wave amplitude (μv)” represents inner retinal function. Then the eyes were collected for histopathology and preserved in Davidson's solution. The eye sections were stained with hematoxylin and eosin staining. The total retinal thickness and the inner plexiform layer thickness was measured at 1000 μm distances from the optic nerve using (Microscope Software ZEN, Zeiss, Germany).
Neuroprotection: The inner plexiform layer (IPL) functions as a relay station for the vertical-information-carrying nerve cells, the bipolar cells, to connect the photoreceptor cells to the ganglion cells. The IPL layer thickness was measured in histological sections stained with (H&E).

`CC(C)CN1CCN(c2ccc(-c3ccc(Cl)cc3N3CCC[C@@H](n4ncc(C(=O)O)c4C(F)F)C3)cc2)CC1` [Example 3, 1-{1-[4-Chloro-4′-(4-isobutylpiperazin-1-yl)[biphenyl]-2-yl]piperidin-3-yl}-5-(difluoromethyl)-1H-pyrazole-4-carboxylic acid hydrochloride] was tested, and the EC50 [1] was 2.7 nM, the “MEC (minimum effective concentration)” value ([1]; hydrochloride) was 0.6 nM and the “retinal structure and photoreceptors integrity (histology)” value ([2]; I/R rats vs IR only) was “the retinal structure was preserved, and the photoreceptors integrity was intact”. The “retinal thickness (histology)” value ([2]; I/R rats, 3 mg/kg PO QD for 21 days plus i.v. 3 mg/kg bolus, at 3 weeks vs IR only) was “significantly higher retinal thickness compared to IR only animals”, the “retinal structure / mean total retinal thickness by optical coherence tomography (OCT)” value ([2]; I/R rats, 1- and 3-weeks post induction vs IR only) was “protect retinal structure” and the “retinal function measured by ERG (b wave amplitude)” value ([2]; I/R rats, one week and 3 weeks post induction vs IR, hydrochloride) was “significant difference in retinal function; also recorded: reduces ischemia induced retinal dysfunction”. The “IPL (inner plexiform layer) thickness” value ([2]; I/R rats, prophylactic setting (FIG. 4A)) was “preserved” and the “IPL (inner plexiform layer) thickness” value ([2]; I/R rats, therapeutic setting (FIG. 4B)) was “preserved”.
